The values below come from patent US4361579A, “Organogermanium compounds” (Yoshitomi Pharmaceutical Industries, Ltd., priority 1979, dated 1982).

One data set concerns emigrating leukocytes. Description: Potentiating Activity for Leukocyte Migration (CMC pouch). The class given is in vivo, rat (male Donryu). The conditions noted are these: 6 hours, vs control group. Here is the method:
The test was performed according to the method described by H. Ishikawa et al in "Yakugaku Zasshi (Journal of the Pharmaceutical Society of Japan)", vol. 88, 1472 (1968).
Male Donryu rats weighing about 150 g were divided into groups of 4 to 5 animals each. Five ml of 2% suspension of carboxymethylcellulose (CMC) in physiological saline was injected subcutaneously in the supra-scapular area. Compounds tested (0.4 ml/rat) were administered into the CMC pouch immediately after the injection of CMC suspension. Six hours later, 0.1 ml of fluid in the CMC pouch was collected and mixed with 6 ml of 0.05% brilliant cresyl blue solution in phosphate buffer (pH 7.2). The suspension was put in a Burker chamber and the emigrating leukocytes were counted under a microscope. The percent potentiation was calculated as compared with the count in the control group.

The subject of data set [1] is plaque forming cells (PFC) in spleen. Briefly: Activity for Antibody Production: plaque forming cells (PFC) in spleen after sensitization with sheep red blood cells. Format: in vivo, mouse (C57B1/6). The conditions noted are these: Control = 100, 7 days after sensitization. The protocol: (§1) C57B1/6 mice (6 week old, 20 g) were sensitized by intraperitoneally administering sheep red blood cells of 5×10^8 /0.1 ml. Compounds tested were given orally on the same day and next day of the sensitization. Seven days after the sensitization, the number of plaque forming cells (PFC) in spleen and of rosette forming cells (RFC) in spleen and thymus were measured in a usual manner.

Data set [2] concerns rosette forming cells (RFC) in thymus. Briefly: Activity for Antibody Production: rosette forming cells (RFC) in thymus after sensitization with sheep red blood cells. Format: in vivo, mouse (C57B1/6). To be noted: Control = 100, 7 days after sensitization. The protocol: as §1
Data set [3] concerns rosette forming cells (RFC) in spleen. Briefly: Activity for Antibody Production: rosette forming cells (RFC) in spleen after sensitization with sheep red blood cells. Format: in vivo, mouse (C57B1/6). To be noted: Control = 100, 7 days after sensitization. Here is the method: as §1
For another data set, the system named is Adjuvant Arthritis. Description: Prophylactic Effect on Adjuvant Arthritis (hind feet swelling). Format: in vivo, rat (Lewis male). The conditions noted are these: day 1 to day 20, hind feet swelling at 28 days. Here is the method:
The tails of Lewis male rats (250 g) were injected mycobacterium butyricum (0.5 mg/0.1 ml). Compounds tested were orally administered daily from the adjuvant inoculation day (day 1) to day 20. Swellings in the hind feet were measured at 28 days after the adjuvant inoculation.

The next data set concerns rat. Briefly: Acute Toxicity (rat, per os). The class given is in vivo. The conditions noted are these: 2000 mg/kg. An excerpt:
| Acute Toxicity (rat, per os)

Setting [4] is: 30 mg/kg orally, *p < 0.05, **p < 0.01.
[5] abbreviates: 3 mg/kg orally, *p < 0.05, **p < 0.01.

As for “polycondensation product of p-(N-ethyl-3-ethoxycarbonylpropionylamino)phenylgermanium trihydroxide [Compound D]”, the figures for the “Potentiation (%)” value with emigrating leukocytes (5 mg/rat into the CMC pouch), in the data set on emigrating leukocytes (10 mg/rat into the CMC pouch) and in the data set with emigrating leukocytes (20 mg/rat into the CMC pouch) were 7%, 33% and 210%, respectively.
On to “polycondensation product of p-(N-methyl-m-methylbenzoylamino)phenylgermanium trihydroxide”, for which the figures for the “Potentiation (%)” value in the data set with emigrating leukocytes (10 mg/rat into the CMC pouch) and with emigrating leukocytes (20 mg/rat into the CMC pouch) were 46% and 55%, respectively.
As for “polycondensation product of p-(N-methyl-3-ethoxycarbonylpropionylamino)phenylgermanium trihydroxide”, in data set [1] (30 mg/kg orally, *p < 0.05), the “PFC in Spleen” value was 81. The “Potentiation (%)” value in the data set with emigrating leukocytes (2.5 mg/rat into the CMC pouch) came to 17%; with emigrating leukocytes (5 mg/rat into the CMC pouch), 87%. Also, the “RFC in Thymus” value in data set [2] (setting [4]) worked out at 248. Further, in data set [3] (30 mg/kg orally, **p < 0.01), the “RFC in Spleen” value stood at 108. The “Inhibition (%)” value is on record as 5% in the data set on Adjuvant Arthritis (25 mg/kg orally daily) and 31% in the data set with Adjuvant Arthritis (100 mg/kg orally daily).
Take “polycondensation product of p-(N-ethyl-2-ethoxycarbonylacetylamino)phenylgermanium trihydroxide”: the “Potentiation (%)” value was 7% in the data set with emigrating leukocytes (0.25 mg/rat into the CMC pouch), 87% with emigrating leukocytes (5 mg/rat into the CMC pouch) and 96% in the data set with emigrating leukocytes (20 mg/rat into the CMC pouch).
As to “polycondensation product of p-(N-methyl-4-ethoxycarbonylbutyrylamino)phenylgermanium trihydroxide”, the “Potentiation (%)” value in the data set on emigrating leukocytes (20 mg/rat into the CMC pouch) is on record as 56%.
As for “polycondensation product of p-(N-methyl-2-ethoxycarbonylacetylamino)phenylgermanium trihydroxide”, the “PFC in Spleen” value in data set [1] (1 mg/kg orally) was determined as 110; in data set [1] (3 mg/kg orally) it was 125; in data set [1] (30 mg/kg orally, *p < 0.05) it was 175. The Mortality in the data set with rat is 0/5. Also, the results for the “Potentiation (%)” value in the data set on emigrating leukocytes (10 mg/rat into the CMC pouch) and in the data set on emigrating leukocytes (20 mg/rat into the CMC pouch) were 16% and 91%, respectively. The “RFC in Thymus” value is 315 in data set [2] (1 mg/kg orally, **p < 0.01); 284 in data set [2] (setting [5]); 431 in data set [2] (setting [4]). In addition, the “RFC in Spleen” value in data set [3] (1 mg/kg orally) turned out to be 157; in data set [3] (3 mg/kg orally, *p < 0.05), 346; in data set [3] (30 mg/kg orally, **p < 0.01), 703. For the same substance, the “Inhibition (%)” value in the data set with Adjuvant Arthritis (10 mg/kg orally daily) is listed as 22%; in the data set on Adjuvant Arthritis (25 mg/kg orally daily), 48%.
As to “polycondensation product of p-(N-methyl-3-carboxypropionylamino)phenylgermanium trihydroxide”, the “PFC in Spleen” value in data set [1] (3 mg/kg orally) is on record as 68. The “Potentiation (%)” value in the data set on emigrating leukocytes (10 mg/rat into the CMC pouch) amounted to 26%; in the data set on emigrating leukocytes (20 mg/rat into the CMC pouch), 47%. The “RFC in Thymus” value in data set [2] (setting [5]) was determined as 218. Further, in data set [3] (3 mg/kg orally, *p < 0.05), the “RFC in Spleen” value was 86. Also, the “Inhibition (%)” value worked out at 35% with Adjuvant Arthritis (25 mg/kg orally daily) and 53% in the data set with Adjuvant Arthritis (100 mg/kg orally daily).
With “polycondensation product of p-(N-methyl-4-carboxybutyrylamino)phenylgermanium trihydrodie”, the “PFC in Spleen” value in data set [1] (3 mg/kg orally) came to 95. Besides, the “Potentiation (%)” value with emigrating leukocytes (10 mg/rat into the CMC pouch) was 44%. For the same substance, the “RFC in Thymus” value in data set [2] (setting [5]) is given as 141. In addition, in data set [3] (3 mg/kg orally, *p < 0.05), the “RFC in Spleen” value turned out to be 85.
Regarding “poly(carboxyethylgermanium sesquioxide) [Comparison, reference compound]”, the “PFC in Spleen” value in data set [1] (30 mg/kg orally, *p < 0.05) amounted to 100. In the data set with emigrating leukocytes (20 mg/rat into the CMC pouch), the “Potentiation (%)” value was 13%. In addition, in data set [2] (setting [4]), the “RFC in Thymus” value is 168. Also, the “RFC in Spleen” value in data set [3] (30 mg/kg orally, **p < 0.01) came to 121. For the same substance, the “Inhibition (%)” value in the data set on Adjuvant Arthritis (25 mg/kg orally daily) is recorded as -18%; in the data set on Adjuvant Arthritis (100 mg/kg orally daily) it was 15%.
